Experiments:
Test in all cases: radiometric filter-binding kinase assay, Kinase HotSpot
Conditions in all cases: compound 0.5 µM; ATP 10 µM
TGFBR1 (human) = TGFBR1 (human) (UniProt P36897)
MAP3K5 (human) = MAP3K5 (human) (UniProt Q99683)
HCK (human) = HCK (human) (UniProt P08631)
PLK2 (human) = PLK2 (human) (UniProt Q9NYY3)
MAP4K5 (human) = MAP4K5 (human) (UniProt Q9Y4K4)
STK11 (human) = STK11 (human) (UniProt Q15831)
MARK3 (human) = MARK3 (human) (UniProt P27448)
IGF1R (human) = IGF1R (human) (UniProt P08069)
NEK7 (human) = NEK7 (human) (UniProt Q8TDX7)
CLK1 (human) = CLK1 (human) (UniProt P49759)
MAP3K8 (human) = MAP3K8 (human) (UniProt P41279)
IKBKE (human) = IKBKE (human) (UniProt Q14164)
PRKCG (human) = PRKCG (human) (UniProt P05129)
CDK9 CCNK (human) = CDK9 CCNK (human) (UniProt O75909+P50750)
FYN (human) = FYN (human) (UniProt P06241)
CAMK1D (human) = CAMK1D (human) (UniProt Q8IU85)
PAK1 (human) = PAK1 (human) (UniProt Q13153)
TXK (human) = TXK (human) (UniProt P42681)
SRPK3 (human) = SRPK3 (human) (UniProt Q9UPE1)
TEK (human) = TEK (human) (UniProt Q02763)
PBK (human) = PBK (human) (UniProt Q96KB5)
ULK1 (human) = ULK1 (human) (UniProt O75385)
MAPKAPK2 (human) = MAPKAPK2 (human) (UniProt P49137)
INSR (human) = INSR (human) (UniProt P06213)
MAP3K9 (human) = MAP3K9 (human) (UniProt P80192)
ACVR1B (human) = ACVR1B (human) (UniProt P36896)
STK33 (human) = STK33 (human) (UniProt Q9BYT3)
TNK2 (human) = TNK2 (human) (UniProt Q07912)
RPS6KA2 KD1 KD2 (human) = RPS6KA2 KD1 KD2 (human) (UniProt Q15349)
CDK5 CDK5R1 p35 (human) = CDK5 CDK5R1 p35 (human) (UniProt Q00535+Q15078)
SRPK2 (human) = SRPK2 (human) (UniProt P78362)
DAPK1 (human) = DAPK1 (human) (UniProt P53355)
AXL (human) = AXL (human) (UniProt P30530)
PRKG2 (human) = PRKG2 (human) (UniProt Q13237)
PAK3 (human) = PAK3 (human) (UniProt O75914)
AURKB (human) = AURKB (human) (UniProt Q96GD4)
FLT3 (human) = FLT3 (human) (UniProt P36888)
CSNK1G1 (human) = CSNK1G1 (human) (UniProt Q9HCP0)
TSSK1B (human) = TSSK1B (human) (UniProt Q9BXA7)
PRKCE (human) = PRKCE (human) (UniProt Q02156)
CDK9 CCNT1 (human) = CDK9 CCNT1 (human) (UniProt P50750+O60563)
JAK3 JH1 JH2 (human) = JAK3 JH1 JH2 (human) (UniProt P52333)

Chain of IKBKE (human) (Q14164 whole entry, looked up): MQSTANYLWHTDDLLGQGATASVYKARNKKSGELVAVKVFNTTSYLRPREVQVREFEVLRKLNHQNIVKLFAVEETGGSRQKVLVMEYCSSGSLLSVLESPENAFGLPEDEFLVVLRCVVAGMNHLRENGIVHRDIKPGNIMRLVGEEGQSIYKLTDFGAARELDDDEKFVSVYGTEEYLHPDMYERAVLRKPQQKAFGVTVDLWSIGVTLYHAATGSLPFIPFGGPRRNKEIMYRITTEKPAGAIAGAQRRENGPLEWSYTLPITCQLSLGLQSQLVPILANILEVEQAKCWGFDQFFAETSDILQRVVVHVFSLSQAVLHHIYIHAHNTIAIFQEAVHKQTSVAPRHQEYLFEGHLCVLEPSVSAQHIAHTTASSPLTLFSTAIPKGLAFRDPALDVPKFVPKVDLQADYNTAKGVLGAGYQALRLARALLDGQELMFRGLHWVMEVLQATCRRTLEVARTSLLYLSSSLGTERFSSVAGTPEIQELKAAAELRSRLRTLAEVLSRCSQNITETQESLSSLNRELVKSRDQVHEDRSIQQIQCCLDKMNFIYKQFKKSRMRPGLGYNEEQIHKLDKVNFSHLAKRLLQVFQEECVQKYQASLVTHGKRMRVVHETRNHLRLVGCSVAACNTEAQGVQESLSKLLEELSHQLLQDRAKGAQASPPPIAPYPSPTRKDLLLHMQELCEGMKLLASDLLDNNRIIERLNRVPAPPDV
Chain of FLT3 (human) (P36888 whole entry, looked up): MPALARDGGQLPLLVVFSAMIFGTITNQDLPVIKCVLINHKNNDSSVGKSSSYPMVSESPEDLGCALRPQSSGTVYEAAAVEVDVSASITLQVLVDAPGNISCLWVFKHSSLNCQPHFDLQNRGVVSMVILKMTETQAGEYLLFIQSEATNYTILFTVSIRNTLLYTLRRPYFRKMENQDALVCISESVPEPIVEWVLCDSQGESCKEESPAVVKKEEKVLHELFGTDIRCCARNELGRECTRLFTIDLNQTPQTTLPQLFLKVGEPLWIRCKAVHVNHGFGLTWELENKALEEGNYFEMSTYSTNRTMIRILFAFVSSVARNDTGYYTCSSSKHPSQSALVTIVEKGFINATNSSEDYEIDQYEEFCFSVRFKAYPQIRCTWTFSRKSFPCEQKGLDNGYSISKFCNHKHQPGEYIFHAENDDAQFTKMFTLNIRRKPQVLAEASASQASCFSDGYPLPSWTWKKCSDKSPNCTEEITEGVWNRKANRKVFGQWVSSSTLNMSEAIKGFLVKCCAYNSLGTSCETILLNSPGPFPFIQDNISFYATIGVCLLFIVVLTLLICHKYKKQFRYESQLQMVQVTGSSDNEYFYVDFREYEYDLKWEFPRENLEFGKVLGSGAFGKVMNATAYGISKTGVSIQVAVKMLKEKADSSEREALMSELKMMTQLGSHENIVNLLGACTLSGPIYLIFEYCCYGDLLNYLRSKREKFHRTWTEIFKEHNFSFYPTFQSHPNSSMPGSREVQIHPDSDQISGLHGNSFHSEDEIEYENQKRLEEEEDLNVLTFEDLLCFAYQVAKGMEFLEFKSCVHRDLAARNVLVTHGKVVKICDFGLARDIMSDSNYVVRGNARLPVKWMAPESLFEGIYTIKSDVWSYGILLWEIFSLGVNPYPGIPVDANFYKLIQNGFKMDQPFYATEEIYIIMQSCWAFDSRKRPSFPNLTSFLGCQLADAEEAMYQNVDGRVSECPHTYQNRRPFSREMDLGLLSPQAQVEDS
Chain of ULK1 (human) (O75385 whole entry, looked up): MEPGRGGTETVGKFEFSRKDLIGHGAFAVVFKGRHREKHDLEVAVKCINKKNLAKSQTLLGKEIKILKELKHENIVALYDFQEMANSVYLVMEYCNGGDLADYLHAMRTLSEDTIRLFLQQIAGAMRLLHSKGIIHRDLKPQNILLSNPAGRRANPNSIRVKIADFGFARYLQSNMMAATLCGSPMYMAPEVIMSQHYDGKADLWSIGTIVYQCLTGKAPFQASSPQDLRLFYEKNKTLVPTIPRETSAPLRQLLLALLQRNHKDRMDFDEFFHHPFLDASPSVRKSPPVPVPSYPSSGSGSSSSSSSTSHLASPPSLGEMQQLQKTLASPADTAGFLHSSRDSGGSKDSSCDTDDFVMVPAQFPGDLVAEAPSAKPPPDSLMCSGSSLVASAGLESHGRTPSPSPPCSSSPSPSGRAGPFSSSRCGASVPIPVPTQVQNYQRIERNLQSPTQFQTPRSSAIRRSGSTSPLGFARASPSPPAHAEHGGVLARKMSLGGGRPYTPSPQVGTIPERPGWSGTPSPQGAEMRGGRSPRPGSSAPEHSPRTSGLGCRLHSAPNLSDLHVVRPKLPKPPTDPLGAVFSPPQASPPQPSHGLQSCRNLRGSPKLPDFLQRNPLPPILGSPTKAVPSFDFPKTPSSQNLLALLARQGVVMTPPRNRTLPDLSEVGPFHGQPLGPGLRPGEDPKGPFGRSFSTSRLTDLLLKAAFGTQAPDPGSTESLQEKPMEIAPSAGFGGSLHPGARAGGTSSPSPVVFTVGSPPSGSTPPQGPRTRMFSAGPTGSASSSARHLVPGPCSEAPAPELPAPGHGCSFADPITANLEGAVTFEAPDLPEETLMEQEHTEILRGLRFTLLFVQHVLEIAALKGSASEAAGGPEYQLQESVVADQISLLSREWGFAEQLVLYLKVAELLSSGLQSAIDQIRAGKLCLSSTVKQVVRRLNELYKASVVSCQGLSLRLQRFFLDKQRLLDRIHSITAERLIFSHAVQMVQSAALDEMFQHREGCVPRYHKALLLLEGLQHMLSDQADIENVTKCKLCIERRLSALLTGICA
Chain of MAP4K5 (human) (Q9Y4K4 whole entry, looked up): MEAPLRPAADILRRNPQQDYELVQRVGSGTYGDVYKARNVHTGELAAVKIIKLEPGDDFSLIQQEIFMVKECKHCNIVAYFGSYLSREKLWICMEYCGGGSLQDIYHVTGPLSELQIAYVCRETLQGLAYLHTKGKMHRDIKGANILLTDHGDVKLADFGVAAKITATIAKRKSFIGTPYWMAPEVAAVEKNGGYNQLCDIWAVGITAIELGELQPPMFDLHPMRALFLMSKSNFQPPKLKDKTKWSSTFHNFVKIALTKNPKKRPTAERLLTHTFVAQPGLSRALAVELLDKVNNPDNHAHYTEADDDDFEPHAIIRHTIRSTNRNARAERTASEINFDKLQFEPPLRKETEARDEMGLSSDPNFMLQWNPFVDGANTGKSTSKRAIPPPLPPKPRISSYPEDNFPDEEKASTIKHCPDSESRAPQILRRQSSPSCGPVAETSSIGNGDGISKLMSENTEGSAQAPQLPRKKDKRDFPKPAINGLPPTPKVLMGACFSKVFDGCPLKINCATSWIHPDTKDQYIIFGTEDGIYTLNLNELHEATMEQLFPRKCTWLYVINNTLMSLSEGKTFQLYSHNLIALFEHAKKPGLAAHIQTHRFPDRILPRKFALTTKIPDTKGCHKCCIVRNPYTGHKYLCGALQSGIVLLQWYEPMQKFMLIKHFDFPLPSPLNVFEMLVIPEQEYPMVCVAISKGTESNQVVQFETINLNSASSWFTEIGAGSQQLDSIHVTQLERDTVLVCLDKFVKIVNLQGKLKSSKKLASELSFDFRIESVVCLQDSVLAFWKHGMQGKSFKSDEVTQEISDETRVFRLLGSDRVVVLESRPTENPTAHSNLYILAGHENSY
Chain of NEK7 (human) (Q8TDX7 whole entry, looked up): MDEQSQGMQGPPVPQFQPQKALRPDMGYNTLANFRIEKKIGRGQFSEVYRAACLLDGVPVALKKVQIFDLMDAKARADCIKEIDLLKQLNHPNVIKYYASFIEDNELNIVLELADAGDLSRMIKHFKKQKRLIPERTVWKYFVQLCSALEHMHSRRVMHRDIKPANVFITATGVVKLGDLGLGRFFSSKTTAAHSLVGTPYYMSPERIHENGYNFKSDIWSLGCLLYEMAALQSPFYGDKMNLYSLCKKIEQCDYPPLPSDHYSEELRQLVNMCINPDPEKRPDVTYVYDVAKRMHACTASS
Chain of MAP3K9 (human) (P80192 whole entry, looked up): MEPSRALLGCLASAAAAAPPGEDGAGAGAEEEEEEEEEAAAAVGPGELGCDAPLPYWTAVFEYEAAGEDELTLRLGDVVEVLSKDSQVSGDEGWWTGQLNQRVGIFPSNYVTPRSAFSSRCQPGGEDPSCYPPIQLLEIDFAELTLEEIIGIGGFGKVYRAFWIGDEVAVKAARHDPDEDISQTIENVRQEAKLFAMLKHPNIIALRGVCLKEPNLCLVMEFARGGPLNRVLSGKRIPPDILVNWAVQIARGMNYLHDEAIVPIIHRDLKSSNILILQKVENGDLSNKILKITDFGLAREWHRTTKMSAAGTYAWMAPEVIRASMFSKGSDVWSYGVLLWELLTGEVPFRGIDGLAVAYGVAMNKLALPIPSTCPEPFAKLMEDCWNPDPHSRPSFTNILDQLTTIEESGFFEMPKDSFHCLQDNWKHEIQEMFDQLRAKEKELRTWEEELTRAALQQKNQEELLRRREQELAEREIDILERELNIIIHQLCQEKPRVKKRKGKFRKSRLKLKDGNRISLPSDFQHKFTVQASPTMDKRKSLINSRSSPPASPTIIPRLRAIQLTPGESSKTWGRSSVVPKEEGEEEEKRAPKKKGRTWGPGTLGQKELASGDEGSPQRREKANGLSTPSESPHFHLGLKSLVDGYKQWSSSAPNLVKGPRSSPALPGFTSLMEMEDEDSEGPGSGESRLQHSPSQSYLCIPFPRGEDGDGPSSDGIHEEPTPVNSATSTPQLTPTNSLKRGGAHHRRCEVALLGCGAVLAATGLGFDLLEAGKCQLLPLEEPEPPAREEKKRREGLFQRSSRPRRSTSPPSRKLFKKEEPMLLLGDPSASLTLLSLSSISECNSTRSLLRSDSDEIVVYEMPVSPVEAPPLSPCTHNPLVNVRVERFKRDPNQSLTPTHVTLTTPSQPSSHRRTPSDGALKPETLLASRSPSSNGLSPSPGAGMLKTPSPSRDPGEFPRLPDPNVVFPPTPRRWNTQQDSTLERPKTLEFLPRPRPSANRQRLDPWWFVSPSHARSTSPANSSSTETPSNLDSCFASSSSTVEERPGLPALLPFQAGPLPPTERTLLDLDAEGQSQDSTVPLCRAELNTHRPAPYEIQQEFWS

`O=C(O)c1ccc2c3c1cccc3c(=O)n1c3ccccc3nc21` showed a residual activity (TGFBR1 (human)) of 99.4%, a residual activity (MAP3K5 (human)) of 102% and a residual activity (HCK (human)) of 96.7%. It also gave a residual activity (PLK2 (human)) of 97%, a residual activity (MAP4K5 (human)) of 47% and a residual activity (STK11 (human)) of 96.6%. For the same compound, the residual activity (MARK3 (human)) was 82.6%, the residual activity (IGF1R (human)) was 100% and the residual activity (NEK7 (human)) was 105%. The residual activity (CLK1 (human)) was 93.8%, the residual activity (MAP3K8 (human)) was 88.3% and the residual activity (IKBKE (human)) was 57.3%. The residual activity (PRKCG (human)) was 99.1%, the residual activity (CDK9 CCNK (human)) was 76.4% and the residual activity (FYN (human)) was 94%. The residual activity (CAMK1D (human)) was 100%, the residual activity (PAK1 (human)) was 95.6% and the residual activity (TXK (human)) was 102%. The residual activity (SRPK3 (human)) was 82.8%, the residual activity (TEK (human)) was 102% and the residual activity (PBK (human)) was 97.5%. It also gave a residual activity (ULK1 (human)) of 83.5%, a residual activity (MAPKAPK2 (human)) of 102% and a residual activity (INSR (human)) of 91.5%. It also gave a residual activity (MAP3K9 (human)) of 64.4%, a residual activity (ACVR1B (human)) of 93.5% and a residual activity (STK33 (human)) of 78.8%. The residual activity (TNK2 (human)) was 101%, the residual activity (RPS6KA2 KD1 KD2 (human)) was 90.5% and the residual activity (CDK5 CDK5R1 p35 (human)) was 88%. It also gave a residual activity (SRPK2 (human)) of 89.3%, a residual activity (DAPK1 (human)) of 40.9% and a residual activity (AXL (human)) of 94.3%. For the same compound, the residual activity (PRKG2 (human)) was 94.8%, the residual activity (PAK3 (human)) was 97.6% and the residual activity (AURKB (human)) was 82.5%. The residual activity (FLT3 (human)) was 68.9%, the residual activity (CSNK1G1 (human)) was 99.5% and the residual activity (TSSK1B (human)) was 112%. It also gave a residual activity (PRKCE (human)) of 113%, a residual activity (CDK9 CCNT1 (human)) of 78.3% and a residual activity (JAK3 JH1 JH2 (human)) of 46.9%.

With `O=c1c2ccccc2[nH]c(=S)n1CCN1CCC(=C(c2ccc(F)cc2)c2ccc(F)cc2)CC1` the residual activity (TGFBR1 (human)) was 96.2%, the residual activity (MAP3K5 (human)) was 98.1% and the residual activity (HCK (human)) was 114%. It also gave a residual activity (PLK2 (human)) of 104%, a residual activity (MAP4K5 (human)) of 98.8% and a residual activity (STK11 (human)) of 107%. The residual activity (MARK3 (human)) was 107%, the residual activity (IGF1R (human)) was 105% and the residual activity (NEK7 (human)) was 100%. The residual activity (CLK1 (human)) was 113%, the residual activity (MAP3K8 (human)) was 100% and the residual activity (IKBKE (human)) was 101%. It also gave a residual activity (PRKCG (human)) of 100%, a residual activity (CDK9 CCNK (human)) of 104% and a residual activity (FYN (human)) of 102%. The residual activity (CAMK1D (human)) was 96.8%, the residual activity (PAK1 (human)) was 94.6% and the residual activity (TXK (human)) was 100%. It also gave a residual activity (SRPK3 (human)) of 102%, a residual activity (TEK (human)) of 96.1% and a residual activity (PBK (human)) of 107%. It also gave a residual activity (ULK1 (human)) of 98.1%, a residual activity (MAPKAPK2 (human)) of 106% and a residual activity (INSR (human)) of 94.3%. The residual activity (MAP3K9 (human)) was 111%, the residual activity (ACVR1B (human)) was 103% and the residual activity (STK33 (human)) was 106%. For the same compound, the residual activity (TNK2 (human)) was 105%, the residual activity (RPS6KA2 KD1 KD2 (human)) was 107% and the residual activity (CDK5 CDK5R1 p35 (human)) was 101%. The residual activity (SRPK2 (human)) was 94.1%, the residual activity (DAPK1 (human)) was 93.8% and the residual activity (AXL (human)) was 91.7%. It also gave a residual activity (PRKG2 (human)) of 104%, a residual activity (PAK3 (human)) of 94.6% and a residual activity (AURKB (human)) of 102%. It also gave a residual activity (FLT3 (human)) of 104%, a residual activity (CSNK1G1 (human)) of 92.5% and a residual activity (TSSK1B (human)) of 106%. The residual activity (PRKCE (human)) was 100%, the residual activity (CDK9 CCNT1 (human)) was 102% and the residual activity (JAK3 JH1 JH2 (human)) was 104%.

`Nc1ncnc2c1cnn2-c1ccccc1` showed a residual activity (TGFBR1 (human)) of 99.6%, a residual activity (MAP3K5 (human)) of 100% and a residual activity (HCK (human)) of 92.4%. It also gave a residual activity (PLK2 (human)) of 99.2%, a residual activity (MAP4K5 (human)) of 87.2% and a residual activity (STK11 (human)) of 93.9%. For the same compound, the residual activity (MARK3 (human)) was 86.1%, the residual activity (IGF1R (human)) was 96.4% and the residual activity (NEK7 (human)) was 106%. The residual activity (CLK1 (human)) was 91.8%, the residual activity (MAP3K8 (human)) was 98.6% and the residual activity (IKBKE (human)) was 100%. The residual activity (PRKCG (human)) was 103%, the residual activity (CDK9 CCNK (human)) was 92.9% and the residual activity (FYN (human)) was 97.8%. The residual activity (CAMK1D (human)) was 95.6%, the residual activity (PAK1 (human)) was 94.2% and the residual activity (TXK (human)) was 94.8%. For the same compound, the residual activity (SRPK3 (human)) was 96.4%, the residual activity (TEK (human)) was 92.2% and the residual activity (PBK (human)) was 92.4%. The residual activity (ULK1 (human)) was 99.5%, the residual activity (MAPKAPK2 (human)) was 98.6% and the residual activity (INSR (human)) was 103%. It also gave a residual activity (MAP3K9 (human)) of 106%, a residual activity (ACVR1B (human)) of 99.4% and a residual activity (STK33 (human)) of 96.1%. It also gave a residual activity (TNK2 (human)) of 90.3%, a residual activity (RPS6KA2 KD1 KD2 (human)) of 92.5% and a residual activity (CDK5 CDK5R1 p35 (human)) of 99.2%. It also gave a residual activity (SRPK2 (human)) of 104%, a residual activity (DAPK1 (human)) of 98.5% and a residual activity (AXL (human)) of 110%. The residual activity (PRKG2 (human)) was 99.2%, the residual activity (PAK3 (human)) was 98.8% and the residual activity (AURKB (human)) was 99.2%. It also gave a residual activity (FLT3 (human)) of 88.9%, a residual activity (CSNK1G1 (human)) of 94.8% and a residual activity (TSSK1B (human)) of 84.1%. For the same compound, the residual activity (PRKCE (human)) was 98.3%, the residual activity (CDK9 CCNT1 (human)) was 109% and the residual activity (JAK3 JH1 JH2 (human)) was 97.4%.
